The results in this text go back to patent US10399949B2, “NK1 receptor antagonist” (KISSEI PHARMACEUTICAL CO., LTD., priority 2015, dated 2019).

One data set has as its target T1, human CYP3A4 (Homo sapiens, UniProt P08684).
T1 construct: purchased BD Biosciences
As to the kind of experiment: Inhibitory effect on CYP3A4 (Luciferin-IPA). In kind it is in vitro ADME. Particulars: test compound 10 μM, 30-minutes pre-incubation, Luciferin-IPA 3 μM. The procedure: Inhibitory Effect on CYP3A4
The dimethyl sulfoxide (DMSO) solution of the test compound with a concentration 1000 times higher than the evaluation concentration was prepared, and a reaction solution was prepared by diluting the solution. Enzyme reaction was performed by incubating in a potassium phosphate buffer solution (pH 7.4) containing 1 μM to 10 μM test compound, 3.2 mM magnesium chloride, 0.2 pmol human CYP3A4 (BD Biosciences), 0.5 mM reduced nicotinamide adenine dinucleotide phosphate (NADPH) and 3 μM Luciferin-IPA (Promega) at 37° C. for 10 minutes. The volume of the reaction solution was 50 μL/well. The 30-minutes pre-incubation group was incubated at 37° C. for 30 minutes before adding the substrate, the Luciferin-IPA solution (12.5 μL/well). At the end of the enzyme reaction, 50 μL/well of a Luciferin detection reagent (Promega) was added to the wells, and the plate was left at room temperature for 20 minutes. Then, the emission intensities were measured with Infinite M1000 (TECAN), and the enzyme activities (%) relative to the value of the group to which the test compound was not added. As a comparative example, aprepitant, which is an NK1 receptor antagonist, was tested in the same manner.
Test was measured by the above test method, and the results are shown in Table 9 when the concentration of the test compound was 10 μM. In the table, Ex. No. means the Example number, and Pre-incubation (30 min) (%) means the enzyme activities (%) of the 30-minutes pre-incubation groups using the test compounds.

The target in data set [1] is T2, human NK1 receptor (Homo sapiens, UniProt P25103).
T2 construct: expressed in transfected cells; host or cells: 293T cells (RIKEN), transient transfection with pcDNA3.1(-) plasmid
As to the kind of experiment: Affinity for human NK1 receptor (125I-substance P receptor binding test, membrane fraction). To be noted: membrane fraction of human NK1 receptor-expressing 293T cells, room temperature 60 minutes, read-out: pIC50 (inverse logarithm of the concentration required for 50% inhibition of 125I-substance P binding) (converted). The protocol:
Affinity for Human NK1 Receptor
(3) Measurement of Binding Affinity to Human NK1 Receptor
(3-1) Preparation of Membrane Fraction from Human NK1 Receptor-Expressing Cells
Human NK1 receptor-expressing cells were prepared in a 175 cm^2 culture flask (Nippon Becton Dickinson). The formation of a complex of the human NK1 receptor expression plasmid and Lipofectamine 2000 was performed by calculating the culture area ratio and increasing the scale of the method described in the above 2-4 by the ratio. The human NK1 receptor-expressing cells were collected in a buffer solution for the membrane fraction preparation (50 mM Tris (Wako Pure Chemical), 120 mM sodium chloride (Wako Pure Chemical Industries), 5 mM potassium chloride (Wako Pure Chemical Industries), 1 mM ethylenediaminetetraacetic acid (Sigma), 0.002 mg/mL chymostatin (Peptide Institute), 0.04 mg/bacitracin (Wako Pure Chemical Industries), 0.005 mg/mL phosphoramidon (Peptide Institute) and 0.5 mM phenylmethylsulfonyl fluoride (Wako Pure Chemical Industries), pH7.4) and centrifuged at 1,880 g for 10 minutes, and the cell sediment was suspended in the buffer solution for the membrane fraction preparation. After freezing and thawing the cells once, the cells were homogenized using a Dounce-type homogenizer (cooled on ice, 1000 rpm, 20 times). The homogenized cell suspension was centrifuged at 20,000 rpm for 10 minutes, and the supernatant was removed to obtain cell sediment. The cell sediment was suspended again in the buffer solution for the membrane fraction preparation and homogenized using a Dounce-type homogenizer (cooled on ice, 1000 rpm, 30 times). The cell suspension was centrifuged at 20,000 rpm for 10 minutes, and the supernatant was removed to obtain cell sediment. The same homogenization and centrifugation were repeated again, and final cell sediment was obtained. The final cell sediment was suspended in a buffer solution for the receptor binding test (50 mM Tris (Wako Pure Chemical Industries), 3 mM manganese chloride (Wako Pure Chemical Industries), 0.002 mg/mL chymostatin (Peptide Institute), 0.04 mg/bacitracin (Wako Pure Chemical Industries) and 0.02% bovine serum albumin (Sigma), pH 7.4), and the protein concentration was measured using BCA Protein Assay Kit (Pierce).
(3-2) Receptor Binding Test
The buffer solution for the receptor binding test was dispensed to the wells of a 96-well assay plate (Greiner) at 22.5 μL/well. DMSO solutions of a test compound, which were prepared at an 80-time higher concentration using 100% dimethyl sulfoxide (DMSO), were added to the wells at 2.5 μL/well (final concentrations of 1 nM to 100 nM), and the solutions were mixed. As a radiolabeled ligand, ^125I-substance P (Substance P, [^125I]Tyr^8-, PerkinElmer) was used. ^125I-substance P was diluted with the buffer solution for the receptor binding test to a concentration resulting in […] and added to the 96-well assay plate, and the solutions were mixed. The membrane fraction prepared from the human NK1 receptor-expressing cells was diluted with the buffer solution for the receptor binding test to a concentration resulting in 8 to 10 μg/well, suspended until the suspension became in such a homogenous state that the suspension could flow through a 27G injection needle smoothly and then added to the 96-well assay plate at 150 μL/well. Then, the plate was incubated at room temperature for 60 minutes while shaking the plate. […]

Data set [2] concerns the target T2, human NK1 receptor. As to the kind of experiment: Inhibitory effect on human NK1 receptor (substance P-induced increase in intracellular calcium concentration). Particulars: HEK-293T; substance P 0.1 μM; compound 1 μM; human NK1 receptor-expressing 293T cells; vehicle = 100%; read-out: SPRR (%) (Substance P-Response Remaining, intracellular calcium concentration). In kind it is cell-based. The protocol:
Inhibitory Effect on Human NK1 Receptor
(1) Preparation of Human NK1 Receptor-Expressing Cells
Human NK1 receptor-expressing cells were prepared by the same methods as those described in 2-3 and 2-4 of Test Example 1.
(2) Study on Inhibitory Effect on Increase in Intracellular Calcium Concentration
The human NK1 receptor-expressing cells were washed with 300 μL/well of a washing solution (20 mM HEPES/Hanks Balanced Salt Solution (HBSS) pH7.3). A fluorescent calcium indicator (Fluo-4 Direct Calcium Assay Kit, Life Technologies, containing 0.42 mM probenecid and 0.1% bovine serum albumin, prepared according to the protocol of the product) was added to the wells at 150 μL/well, and the plate was incubated at 37° C. for 30 minutes in an incubator. Then, DMSO solutions of a test compound, which were prepared at an 80-time higher concentration using 100% dimethyl sulfoxide (DMSO), were added to the wells at 2.5 μL/well (final concentrations of 0.1, 1 and 10 μM), and the solutions were mixed. Then, the plate was further incubated at 37° C. for 30 minutes in an incubator. After 30 minutes, the intracellular calcium concentrations were measured immediately.
The intracellular calcium concentrations were each measured as a fluorescent signal using FDSS® 7000 (Hamamatsu Photonics). A substance P (Peptide Institute, Inc.) solution which was prepared at 0.4 μM or 4 μM using an assay buffer (20 mM HEPES/Hanks Balanced Salt Solution (HBSS) pH 7.3 containing 0.1% bovine serum albumin) was added automatically to each well at 50 μL/well (final concentration of 0.1 or 1 μM) 10 seconds after starting reading, and the fluorescent signal was measured up to 120 seconds.
The intracellular calcium concentration (%) of the cells to which a test compound was added was calculated by the equation below, where the fluorescent signal of the group to which the vehicle (DMSO) was added was regarded as 100%, and the fluorescent signal before the addition of substance P was regarded as 0%. Intracellular calcium concentration (%)=(Fluorescent signal of test compound addition group)/(Fluorescent signal of vehicle addition group)×100
The intracellular calcium concentration (%) calculated was regarded as the remaining agonist activity of substance P (Substance P-Response Remaining: SPRR). In the table, Ex. No. means the Example number. SPRR (%) means the value obtained when the concentration of substance P was 0.1 μM and the concentration of the compound was 1 μM.

T2 sequence (P25103 whole entry): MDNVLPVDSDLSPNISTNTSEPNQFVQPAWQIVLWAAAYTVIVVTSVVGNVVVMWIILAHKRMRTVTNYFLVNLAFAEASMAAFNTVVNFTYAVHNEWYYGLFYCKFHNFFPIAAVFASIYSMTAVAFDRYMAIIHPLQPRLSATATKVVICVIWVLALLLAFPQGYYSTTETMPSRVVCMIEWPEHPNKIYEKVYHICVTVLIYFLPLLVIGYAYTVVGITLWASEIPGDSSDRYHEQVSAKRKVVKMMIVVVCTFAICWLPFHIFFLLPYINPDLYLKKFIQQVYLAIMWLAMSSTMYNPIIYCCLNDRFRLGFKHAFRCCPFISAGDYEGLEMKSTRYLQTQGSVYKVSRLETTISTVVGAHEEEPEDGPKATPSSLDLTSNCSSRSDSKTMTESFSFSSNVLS
T1 sequence (P08684 whole entry): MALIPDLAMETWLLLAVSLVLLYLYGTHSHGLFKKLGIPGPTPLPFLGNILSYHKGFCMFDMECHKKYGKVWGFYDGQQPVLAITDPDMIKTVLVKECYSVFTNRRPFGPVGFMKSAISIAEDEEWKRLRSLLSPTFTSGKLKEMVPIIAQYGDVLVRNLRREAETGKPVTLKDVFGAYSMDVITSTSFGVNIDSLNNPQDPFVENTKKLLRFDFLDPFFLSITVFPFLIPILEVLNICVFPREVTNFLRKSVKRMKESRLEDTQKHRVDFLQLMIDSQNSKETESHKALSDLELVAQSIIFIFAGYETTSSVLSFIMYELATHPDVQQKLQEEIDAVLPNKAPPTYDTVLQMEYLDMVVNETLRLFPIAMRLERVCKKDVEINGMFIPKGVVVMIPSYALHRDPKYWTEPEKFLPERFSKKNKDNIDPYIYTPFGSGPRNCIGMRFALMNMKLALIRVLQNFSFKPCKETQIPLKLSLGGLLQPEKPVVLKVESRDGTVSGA

Consider `C[C@@H](O[C@H]1OCCN(Cc2n[nH]c(=O)[nH]2)[C@H]1c1ccc(F)cc1)c1cc(C(F)(F)F)cc(C(F)(F)F)c1` [Aprepitant, aprepitant, reference compound], for which, on human CYP3A4, the “Preincubation (30 min) (%) (enzyme activities relative to group without test compound)” value is on record as 1.3%.

For the molecule `Cc1cc(F)ccc1[C@H]1CN(C2CCC(CC(=O)O)CC2)CCN1C(=O)N(C)[C@H](C)c1cc(C(F)(F)F)cc(C(F)(F)F)c1` (stereo partly drawn) [Example 1, {4-[(S)-4-{[(R)-1-(3,5-Bistrifluoromethylphenyl)ethyl]methylcarbamoyl}-3-(4-fluoro-2-methylphenyl)piperazin-1-yl]cyclohexyl}acetic acid], the IC50 on human NK1 receptor [1] is 2.24 nM. Moreover, the remaining activity at 1 µM on human NK1 receptor [2] was determined as 15%.

For the molecule `Cc1cc(F)ccc1[C@H]1CN(C(=O)[C@H]2CC[C@@H](CC(=O)O)CC2)CCN1C(=O)N(C)[C@H](C)c1cc(C(F)(F)F)cc(C(F)(F)F)c1` [Example 2, cis-{4-[(S)-4-{[(R)-1-(3,5-Bistrifluoromethylphenyl)ethyl]methylcarbamoyl}-3-(4-fluoro-2-methylphenyl)piperazine-1-carbonyl]cyclohexyl}acetic acid], the IC50 on human NK1 receptor [1] is 1.38 nM. Further, the remaining activity at 1 µM on human NK1 receptor [2] is 25%. For `Cc1cc(F)ccc1[C@H]1CN(C(=O)[C@H]2CC[C@H](CC(=O)O)CC2)CCN1C(=O)N(C)[C@H](C)c1cc(C(F)(F)F)cc(C(F)(F)F)c1` [Example 3, trans-{4-[(S)-4-{[(R)-1-(3,5-Bistrifluoromethylphenyl)ethyl]methylcarbamoyl}-3-(4-fluoro-2-methylphenyl)piperazine-1-carbonyl]cyclohexyl}acetic acid] the same measures were 1.41 nM and 50%. For `Cc1cc(F)ccc1[C@H]1CN(C2CCC(C(=O)O)CC2)CCN1C(=O)N(C)[C@H](C)c1cc(C(F)(F)F)cc(C(F)(F)F)c1` (stereo partly drawn) [Example 6, 4-[(S)-4-{[(R)-1-(3,5-Bistrifluoromethylphenyl)ethyl]methylcarbamoyl}-3-(4-fluoro-2-methylphenyl)piperazin-1-yl]cyclohexanecarboxylic acid] the same measures were 1.7 nM and 14%. Consider `Cc1cc(F)ccc1[C@H]1CN(C[C@H]2CC[C@@H](C(=O)O)CC2)CCN1C(=O)N(C)[C@H](C)c1cc(C(F)(F)F)cc(C(F)(F)F)c1` [Example 7, cis-4-[(S)-4-{[(R)-1-(3,5-Bistrifluoromethylphenyl)ethyl]methylcarbamoyl}-3-(4-fluoro-2-methylphenyl)piperazin-1-ylmethyl]cyclohexanecarboxylic acid], for which the IC50 on human NK1 receptor [1] was 2.04 nM. Also, the remaining activity at 1 µM on human NK1 receptor [2] was 6.6%. In the same order, the values of `Cc1cc(F)ccc1[C@H]1CN(C[C@H]2CC[C@H](C(=O)O)CC2)CCN1C(=O)N(C)[C@H](C)c1cc(C(F)(F)F)cc(C(F)(F)F)c1` [Example 8, trans-4-[(S)-4-{[(R)-1-(3,5-Bistrifluoromethylphenyl)ethyl]methylcarbamoyl}-3-(4-fluoro-2-methylphenyl)piperazin-1-ylmethyl]cyclohexanecarboxylic acid] are 1.86 nM and 14%.

As to `Cc1cc(F)ccc1[C@H]1CN(Cc2ccc(CC(=O)O)cc2)CCN1C(=O)N(C)[C@H](C)c1cc(C(F)(F)F)cc(C(F)(F)F)c1` [Example 9, {4-[(S)-4-{[(R)-1-(3,5-Bistrifluoromethylphenyl)ethyl]methylcarbamoyl}-3-(4-fluoro-2-methylphenyl)piperazin-1-ylmethyl]phenyl}acetic acid], the IC50 at human NK1 receptor [1] is 1.55 nM. On human NK1 receptor [2], the remaining activity at 1 µM worked out at 38%. `Cc1cc(F)ccc1[C@H]1CN(C(=O)N2CCC(CC(=O)O)CC2)CCN1C(=O)N(C)[C@H](C)c1cc(C(F)(F)F)cc(C(F)(F)F)c1` [Example 10, {1-[(S)-4-{[(R)-1-(3,5-Bistrifluoromethylphenyl)ethyl]methylcarbamoyl}-3-(4-fluoro-2-methylphenyl)piperazine-1-carbonyl]piperidin-4-yl}acetic acid]: on human NK1 receptor [1], the IC50 was 1.17 nM. The remaining activity at 1 µM on human NK1 receptor [2] amounted to 30%. With `Cc1cc(F)ccc1[C@H]1CN(CC23CC(C(=O)O)(C2)C3)CCN1C(=O)N(C)[C@H](C)c1cc(C(F)(F)F)cc(C(F)(F)F)c1` [Example 11, 3-[(S)-4-{[(R)-1-(3,5-Bistrifluoromethylphenyl)ethyl]methylcarbamoyl}-3-(4-fluoro-2-methylphenyl)piperazin-1-ylmethyl]bicyclo[1.1.1]pentane-1-carboxylic acid], the IC50 at human NK1 receptor [1] is 1.91 nM. Further, on human NK1 receptor [2], the remaining activity at 1 µM was found to be 24%. Consider `Cc1cc(F)ccc1[C@H]1CN(C2CCC(CC(=O)O)CC2)CC[C@@H]1C(=O)N(C)[C@@H](C)c1cc(C(F)(F)F)cc(C(F)(F)F)c1` (stereo partly drawn) [Example 12, {4-[(3 S,4S)-4-{[(S)-1-(3,5-Bistrifluoromethylphenyl)ethyl]methylcarbamoyl}-3-(4-fluoro-2-methylphenyl)piperidin-1-yl]cyclohexyl}lacetic acid], for which the IC50 on human NK1 receptor [1] was 0.282 nM. Besides, the remaining activity at 1 µM at human NK1 receptor [2] came to 4.9%.
